Reference: PMC8406319, “The dCache Chemoreceptor TlpA of Helicobacter pylori Binds Multiple Attractant and Antagonistic Ligands via Distinct Sites” (mBio, 2021)
Counter-ions that a name gives are not always drawn.

How the values were obtained:
WT TlpALBD = assay: SPR competition (A-B-A) binding assay; parameters: species or system Helicobacter pylori SS1; details: compounds at 10-fold their Kd
Protocol: The two ligands’ binding status can be classified as either independent, shared, or preferential shared sites. For independent sites, ligand A saturates all its binding sites, and ligand B then binds to its independent site; this mode produces additive effects on the SPR signal. […] Finally, it is also possible to have preferential shared sites where ligands share the same binding site, but the protein binds to one ligand preferentially when in equilibrium.
SPR competition assays were performed by using a Biacore S200 instrument and the A-B-A inject function ([56]). Competition A-B-A analyses were used to interrogate the specificity of the potential ligand binding site preferences of TlpALBD and to unravel the nature of the ligand-sensor interactions. This assay was designed to show if a cumulative response is observed when a second analyte (B) is flown across the bound protein saturated with the first analyte (A) (Fig. 4). […] The wild-type TlpALBD protein was immobilized as described above. […] All response data were normalized to a molecular weight of 100 Da for each analyte, allowing direct comparison of responses. Independent-site theoretical values are calculated by taking the sum of individual responses. Shared-site theoretical values are calculated by taking the sum of individual responses divided by the number of individual responses.

TlpALBD = assay: Small-molecule ligand binding array; parameters: species or system Helicobacter pylori SS1; details: ligand binding array screen; n = 3; note: key: + for positive binding; +/− for intermediate binding; − for no binding
Protocol: Small-molecule arrays were prepared and performed as previously described ([57]). Briefly, 1 μg of purified TlpALBD in phosphate-buffered saline (PBS) (pH 7.2) was incubated with a molar concentration ratio (4:2:1) of anti-His antibody (Cell Signaling), followed by incubation with a secondary antibody (Thermo Scientific) for signal amplification. The protein-antibody mix was added to an Arrayit Superepoxy III glass substrate array blocked with PBS (pH 7.2) with 1% bovine serum albumin. […] Unbound protein was washed away with PBS with 0.05% Tween. […] Three biological replicates were performed, with a total of 12 data points for each glycan tested. Binding was classified as positive for a ligand if the relative fluorescence unit value was >1-fold above the mean background (defined as the average background of negative-control spots plus 3 standard deviations [SD]) and was statistically significant (P < 0.005 by Student’s t test). Small-molecule array slide preparation and analysis were done according to MIRAGE guidelines ([58]) (outlined in Table S5).
Classification Guidelines
1. Sample: Glycan Binding Sample
Origin: Helico bact er pyl ori SS1; produce d as a reco mbinant His -tagged protein in E.
The preparation of TlpA is exp lained in the Materials and Methods se ct ion: TlpA co nst ruct desi gn and protein purifica tion.
Sample Sample is a His Tagged protein co ntaining only the periplasm ic rece ptor domain, amino […]
Please see Materials and Methods: Li ga nd bi ndi ng arra y.
Proteins were co mplexe d with mouse anti-his antibody, with se co ndary and tertiary Alexa Fluor555 antibodies (rabbit anti-mouse , goat anti-rabbit) at a molar ratio of 4:2:1.
The protein/antibody co mplex was incu bated on ice for 10 mins prior to placi ng on the Assa y array. Arrays were performed with 1 µg of co mplexe d protein incu bated on the array for protoco l 20 min. Arrays were then wash ed 3 times in Array PBS (PBS + 2 mM MgCl2 + 2 mM CaCl2) then dried by ce ntrifugation for 3 min at 300 x g. Sca nning was performed usi ng an Innopsys InnoSca n 1100AL and analyze d usi ng Mapix (Innopsy s). Yes/ no binding was determined by si x posi tive replica te sp ots in three replica te exp eriments. […]
2.2 Small molecule Library […]
descr iption for Compounds printed in the amino aci d/small molecu le array for this st udy are list ed in […]
5.2 Small molecule array with “Map”
The array co nsi sts of triplica te su b-arrays of amino aci ds and sm all moleucl es (24 rows x 10 co lumns) with 400μm sp ot sp aci ng (ce ntre to ce ntre) with a minimum sp ot si ze of 100μm . Each sa mple is printed si x times, with each of the 3 su b-arrays incl uding at least Array layo ut si x negative co ntrol sa mples (print so lution only) and a posi tive co ntrol sa mples […]
Posi tive co ntrols provi de proof of su cce ssf ul immobiliza tion of the amine reagents and provi des for orientation for analysi s.
Sample Arrays are quality co ntrolled by a range of measu res. 1. Each printed array is post print identifica tion sca nned to co nfirm deposi tion of the sa mples on the array su rface prior to neutraliza tion and quality of the remaining sl ide su rface . 2. Post neutralize d sl ides are sca nned again to monitor co ntrol for remaining autofluoresce nce .
1. 6. Detector and Data Processing
Sca nning reso lution: […]
Sca n powers: Low lase r power. […]
analysi s Innopsys MAPIX.

## O=C(O)/C=C/C(=O)O [Fumarate, sodium fumarate]
WT TlpALBD
  SPR response following initial saturation with glucosamine: no additive response was observed
WT TlpALBD; compared to theoretical value
  SPR response after saturation of TlpALBD with arginine: increased response (additive effect)
TlpALBD
  Array result: +

## N=C(N)NCCC[C@H](N)C(=O)O [Arginine, L-arginine monohydrochloride]
WT TlpALBD
  SPR response following initial saturation with glucosamine: no additive response was observed
WT TlpALBD; compared to theoretical value
  SPR response after saturation of TlpALBD with fumarate: did not produce an additional response
TlpALBD
  Array result: +

## N[C@H]1C(O)O[C@H](CO)[C@@H](O)[C@@H]1O (stereo partly drawn) [Glucosamine, D(+)-glucosamine hydrochloride]
WT TlpALBD
  SPR response following saturation with arginine or fumarate: the response was not additive
TlpALBD
  Array result: +

## N[C@@H](CS)C(=O)O [Cysteine, L-cysteine hydrochloride monohydrate]
TlpALBD
  Array result: +/−

## O=C(O)C[C@H](O)C(=O)O [Malic acid, L-malic acid]
TlpALBD
  Array result: +/−

## Cc1ncc(C[n+]2csc(CCO)c2C)c(N)n1 [Thiamine, thiamine hydrochloride]
TlpALBD
  Array result: +/−
